Data: a melting point compilation (Tetko et al.)
Non-standard residues stand in square brackets, D forms with d. Residues, ends and D or L forms follow the SMILES beside them. *: point of attachment. Phe(2-Me) = Cc1ccccc1C[CH](N)C(=O)O; Tle = CC(C)(C)[CH](N)C(=O)O; X3 = CC(C)(C)OC(=O)CCC(=O)*; OtBu = CC(C)(C)O*

SMILES | melting point
CCCc1[nH]c2ccccc2c1C1(c2ccc(N(CC)CC)cc2OCCCCOc2cc(N(CC)CC)ccc2C2(c3c(CCC)[nH]c4ccccc34)OC(=O)c3ccccc32)OC(=O)c2ccccc21 (stereo unspecified) | 140 °C
CC(CCC(=O)NCCNCCCNC(=O)CN1CCN(CC(=O)O)CCN(CC(=O)O)CCN(CC(=O)O)CC1)C1CCC2C3C(O)CC4CC(O)CCC4(C)C3CC(O)C12C (stereo unspecified) | 154 °C
CCCCCCCCCCCCCCCCCC[Si](C)(C)O[C@@H]1c2cc(Br)ccc2-c2ccc(Br)cc2[C@H]1O[Si](C)(C)CCCCCCCCCCCCCCCCCC (relative stereo) | 51.5 to 52.5 °C
CCOC(=O)c1cn(C23CC(C2)C3)c2c(F)c(F)c(F)cc2c1=O | 176 to 178 °C
CC(C)(O)CON1C(C)(C)CC(CCCCNc2nc(NCCCCC3CC(C)(C)N(OCC(C)(C)O)C(C)(C)C3)nc(NCCCCC3CC(C)(C)N(OCC(C)(C)O)C(C)(C)C3)n2)CC1(C)C | 172 to 176 °C
C=CC1=C(C)c2cc3[nH]c(cc4nc(cc5[nH]c(cc1n2)c(C)c5CCC(=O)OC(CN(C)C)CN(C)C)C(CCC(=O)OC(CN(C)C)CN(C)C)=C4C)c(C)c3C=C | 181 to 190 °C
CCCCCCCCCCCCS(=O)(=O)c1cc2c(cc1S(=O)(=O)CCCCCCCCCCCC)C(=O)c1c(c(O)c3cc(S(=O)(=O)CCCCCCCCCCCC)c(S(=O)(=O)CCCCCCCCCCCC)cc3c1O)C2=O | 180 to 183 °C
CCCCCCCCN=C(O)c1c(Sc2ccc([N+](=O)[O-])cc2)c(Sc2ccc([N+](=O)[O-])cc2)c(Sc2ccc([N+](=O)[O-])cc2)c(Sc2ccc([N+](=O)[O-])cc2)c1C(=O)O | 202 to 204 °C
CCCCCCCCCCS(=O)(=O)c1c(S(=O)(=O)CCCCCCCCCC)c(S(=O)(=O)CCCCCCCCCC)c(S(=O)(=O)CCCCCCCCCC)c(S(=O)(=O)CCCCCCCCCC)c1S(=O)(=O)CCCCCCCCCC | 76 °C
CCCCCCCCCCC1(CCCCCCCCCC)c2cc(-c3ccc4c(c3)C(CC)(CC)c3cc(-c5nc6ccccc6s5)ccc3-4)ccc2-c2ccc(-c3ccc4c(c3)C(CC)(CC)c3cc(N(c5ccccc5)c5ccccc5)ccc3-4)cc21 | 228 to 229 °C
Cc1ccccc1CC(NC(=O)C(CCC(=O)OC(C)(C)C)NC(=O)C(CC(=O)OC(C)(C)C)NC(=O)CCC(=O)OC(C)(C)C)C(=O)NC(C(=O)NC(CC(C)C)C(=O)O)C(C)(C)C (X3-D(OtBu)E(OtBu)[Phe(2-Me)][Tle]L-OH; configuration not given here) | 235 to 236 °C
CCCCCCCCCCOc1cc(OCCCCCCCCCC)cc(N(CC(=O)OCOC(C)=O)CC(=O)OCOC(C)=O)c1 | 37 to 39 °C
CCCCCCCCCCOc1cc2c3c(c4cc(OCCCCCCCCCC)c(OCCCCCCCCCC)cc4c2cc1OCCCCCCCCCC)C(=O)C=CC3=O | 86 to 87 °C
CC(=O)N1C(C)(C)CC(OC(=O)CCn2c(=O)n(CCC(=O)OC3CC(C)(C)N(C(C)=O)C(C)(C)C3)c(=O)n(CCC(=O)OC3CC(C)(C)N(C(C)=O)C(C)(C)C3)c2=O)CC1(C)C | 126 to 128 °C
CC(C)(C)c1cc(-c2cc(C(C)(C)C)cc(C(C)(C)C)c2Op2oc3ccccc3c3ccccc3o2)c(Op2oc3ccccc3c3ccccc3o2)c(C(C)(C)C)c1 | 80 °C
CCC1(O)CC(OC2CC(N(C)C)C(OC3CC4OC5CC(=O)C(C)OC5OC4C(C)O3)C(C)O2)c2c(cc3c(c2O)C(=O)c2c(O)cccc2C3=O)C1C(=O)OC (stereo unspecified) | 161 °C
C=CC(=O)OCCCCCCCCCCCOc1ccc(-c2nc(-c3ccc(OCCCCCCCCCCCOC(=O)C=C)cc3O)nc(-c3ccc(OCCCCCCCCCCCOC(=O)C=C)cc3O)n2)c(O)c1 | 72.8 °C
CCCCCCCCCCCCCCCCCCCCCC(=O)OCCN(CCOC(=O)CCCCCCCCCCCCCCCCCCCCC)CC(=O)O | 73 to 75 °C
CC(CCOc1c(I)cc(I)cc1I)Oc1c(I)cc(I)cc1I (stereo unspecified) | 173 to 175 °C
CCCCCCCC/C=C\CCCCCCCCN | 15 to 22 °C

Continued, values first:

melting point | SMILES
221 to 223 °C | COC(=O)COC1C(NC(C)=O)C(OCc2ccccc2)OC(COCc2ccccc2)C1OC1OC(COCc2ccccc2)C(OCc2ccccc2)C(OCc2ccccc2)C1NC(C)=O (stereo unspecified)
87 to 89 °C | CCOC(=O)OC1=C(c2cc(C)ccc2C)C(=O)NC1CC1CCS(=O)(=NC(=O)C(F)(F)F)CC1 (stereo unspecified)
255 °C | COc1cc(C2c3cc4c(cc3C(NC(=O)CNCCCN(CCCCNC(=O)OCc3ccccc3)C(=O)OCc3ccccc3)C3COC(=O)C23)OCO4)cc(OC)c1O (stereo unspecified)
95 to 97 °C | COC(=O)C(CCNC(=O)c1ccccc1C(=O)O)Oc1c(Br)cc(-c2ccc(-c3c(Cc4ccccc4)sc4ccccc34)cc2)cc1Br (stereo unspecified)
205 to 207 °C | CN1CCC(c2nn(-c3ccncc3)c3ccccc23)CC1
266 to 270 °C | O=C(Nc1ccc(Cl)cc1)NC1CCN(S(=O)(=O)c2ccc(C(=O)O)cc2)CC1
93 to 94 °C | O=C(OCCCOC(=O)C(OCc1ccc(-c2ccc(Cl)cc2)cc1)(C(F)(F)F)C(F)(F)F)C(OCc1ccc(-c2ccc(Cl)cc2)cc1)(C(F)(F)F)C(F)(F)F
167 to 171 °C | CC(C)c1cc(C(C)C)c(CC(=O)NS(=O)(=O)Oc2c(C(C)C)cc(C(=O)[C@H](CCCCNC(=O)OC(C)(C)C)NC(=O)OC(C)(C)C)cc2C(C)C)c(C(C)C)c1
300 °C | O=C1OC(=O)c2ccc3c4c(ccc1c24)C(=O)OC3=O
195 to 197 °C | O=C(O)c1ccnc(F)c1
104 to 105 °C | O=C(NCC(COC(C(F)(F)F)(C(F)(F)F)C(F)(F)F)(COC(C(F)(F)F)(C(F)(F)F)C(F)(F)F)C(=O)O)OCC1c2ccccc2-c2ccccc21
180 to 190 °C | CCNC(=O)[C@@H]1CCCN1C(=O)[C@H](CCCNC(=N)N)NC(=O)[C@H](CC(C)C)NC(=O)[C@@H](Cc1ccc2ccccc2c1)NC(=O)[C@H](Cc1ccc(O)cc1)NC(=O)[C@H](CO)NC(=O)[C@H](Cc1c[nH]c2ccccc12)NC(=O)[C@H](Cc1c[nH]cn1)NC(=O)[C@@H]1CCC(=O)N1
184 to 185 °C | O=C(CCl)Nc1nc(-c2ccco2)c(C(=O)c2ccccn2)s1
177 to 178 °C | Nc1ncnc2c1c(I)cn2COC(O)CCO (stereo unspecified)
157 to 159 °C | CC(C)COc1c(-c2ccc(S(N)(=O)=O)c(F)c2)cnn(-c2cccc(Cl)c2)c1=O
107 to 108 °C | Cc1nn(-c2ccc(C(F)(F)F)cn2)cc1CCCOc1cccc(OC(C)(C)C(=O)O)c1
57 to 57.5 °C | [C-]#[N+]Cc1nc2ccccc2o1
80 to 81.5 °C | Cn1nc(COC(=O)CCC(=O)OCc2nc(NCCCOc3cccc(CN4CCCCC4)c3)n(C)n2)nc1NCCCOc1cccc(CN2CCCCC2)c1
195 to 197 °C | O=C(O)Cc1cccc(-c2cc(CCCCc3ccc(OC4OC(CO)C(O)C(O)C4O)c(-c4cccc(CC(=O)O)c4)c3)ccc2OC2OC(CO)C(O)C(O)C2O)c1 (stereo unspecified)
106 to 109 °C | O=C(Oc1ccc2c(OC(=O)c3ccc(OCc4ccccc4)c(Cl)c3)c3ccccc3cc2c1OC(=O)c1ccc(OCc2ccccc2)c(Cl)c1)c1ccc(OCc2ccccc2)c(Cl)c1
177 to 180 °C | CCCCCCCCCCCCCCCCS(=O)(=O)Nc1cccc2ccc(O)c(NS(=O)(=O)c3ccc(NC(C)=O)c4c(O)c(N=Nc5ccccc5OC)ccc34)c12
